# Several values for one entry are separate records, joined by “and”; a condition that tells them apart may be missing. Identical values can stand only once.
# Assays:
# cardiomyocyte H9c2 cells = experiment: Cytoprotection against hydrogen peroxide-induced cytotoxicity; type: cell-based; conditions: pretreatment 2 h (4d 50 μM; phenyl cyanamide 200 μM), then H2O2 200 μM 2 h, CCK-8
# Experimental: FIGS. 6a and 6b provide graphs of (a) the cell viability of cardiomyocyte H9c2 cells following incubation of the RSSH precursor 4d (50 μM) and phenylcynamide (200 μM) for 24 h; and (b) the cytoprotective effects of the RSSH precursor 4d observed following pretreatment of H9c2 cells with either 4d (50 μM) or phenylcynamide (200 μM) for 2 h, followed by hydrogen peroxide (200 μM) treatment for 2 h. Quantification of cell viability was carried out using Cell Counting Kit-8 (CCK-8). Results are expressed as the mean±SEM (n=6).
# Since hydropersulfides are reported to mitigate oxidative stress, the ability of RSSH precursor 4d to protect cardiomyocyte H9c2 cells from cytotoxicity induced by hydrogen peroxide (H2O2) was tested.
# [1] = Kinetics of RSSH generation by 1H NMR with NEM trapping; type: physicochemical; conditions: 10% D2O
# Experimental: FIGS. 3a and 3b provide graphs of (a) Stacked ^1H NMR spectra showing the decomposition of precursor 4d (1 mM) with NEM (20 mM) in 10% D2O, phosphate buffer (PB), pH 7.4 at 37° C. to produce RSS-NEM adduct 5a; Precursor 4d was introduced to a solution of NEM in PB at t=0 min and following equilibration and shimming, the first 1H NMR spectrum was obtained after 6 min.; and (b) The kinetics of decomposition of 4d (circles represent the —CH3 protons (Ha) of the precursor) and formation of 5a (squares represent the diasterotopic protons (Hb) of the succinimide ring of the two product diastereomers).
# Next, ^1H NMR spectroscopy was used to monitor the kinetics of RSSH generation from 4d by trapping with NEM in 10% D2O, pH 7.4 buffer containing DMSO as an internal standard at 37° C. An increase in the peak intensity attributed to one of the diasterotopic protons of the succinimide ring of the two product diastereomers (Hb, δ2.99-2.91 ppm) was observed (FIG. 3a). The other diasterotopic proton (Hc, δ3.30-3.21 ppm) overlaps with N-ethylmaleamic acid (NEMA), a product derived from NEM hydrolysis. Similarly, the intensity of two methyl group protons of precursor 4d (δ1.44 and 1.41 ppm) decreased as four methyl group protons of the two diastereomers of 5a (Ha, δ1.40, 1.37 ppm and 1.40, 1.34 ppm) increased, supporting the clean conversion of 4d to 5a. The ^1H NMR peak assignments for 5a are consistent with the RSS-NEM adduct formed during S-methoxycarbonyl penicillamine disulfide (MCPD) decomposition (Scheme 1, eq. 3) in the presence of NEM.
# All starting materials were of reagent grade and used without further purification. N-acetyl-D-penicillamine, N-ethylmaleimide, N-ethylmaleamic acid, and phenylcyanamide were purchased from Sigma-Aldrich and used without further purification. Thiourea and N-substituted thioureas were purchased from Alfa Aesar and Oakwood Chemicals. Deuterated solvents (Cambridge Isotope Laboratories) were used for NMR spectroscopic analyses. NMR spectra were obtained on a 400 MHz FT-NMR spectrometer. All chemical shifts are reported in parts per million (ppm) relative to residual CHCl3 (7.26 ppm for ^1H, 77.2 ppm for ^13C), residual H2O (4.79 ppm for ^1H), residual DMSO (2.50 ppm for ^1H, 39.5 for ^13C), or residual MeOH (3.31 ppm for ^1H, 49.2 ppm for ^13C). The kinetics of RSSH generation were measured using a Varian Inova 800 MHz spectrometer. UPLC-MS analysis was carried out with a Waters Acquity/Xevo-G2 UPLC-MS system equipped with an ACQUITY UPLC BEH C18 column (2.1 mm×50 mm, 1.7 μm). The mass signals for products of hydropersulfide trapping with NEM were obtained via deconvolution using MassLynx 4.1 software. The pH measurements were performed using a Fisher Scientific Accumet AB15 pH-meter. Analytical thin layer chromatography (TLC) was performed on Sigma-Aldrich silica gel on TLC A1 foils with fluorescent indicator F254 plates. Visualization was accomplished with UV light (254 nm) or staining with KMnO4. Flash column chromatography was performed using SiliaFlash P60 (230-400 mesh) silica gel. Melting points were recorded using MEL-TEMP® capillary melting point apparatus and are uncorrected.
smiles,measurement,setting,value
"CC(=O)NC(C(=O)O)C(C)(C)SSC(=N)Nc1ccccc1.Cl (centres unmarked) [Precursor 4d, ((1-acetamido-1-carboxy-2-methylpropan-2-yl)disulfaneyl)(phenylamino)methaniminium chloride]",cytoprotection from H2O2-induced cytotoxicity,cardiomyocyte H9c2 cells,significant cytoprotection
same,"k, single-exponential fit of precursor decomposition and 5a formation","[1]; 4d 1 mM, NEM 20 mM, phosphate buffer pH 7.4, 37° C.",0.12 min⁻¹
same,half-life at 1 mM,"[1]; NEM, pH 7.4 buffer, 37° C., read-out: half-life of precursor",5.6 min
same,t1//2 (mm),"[1]; precursor 1 mM, NEM 20 mM, pH 7.4 phosphate buffer, 37° C.",5.6 ± 0.3 min
same,Hydropersulfide Yield (%) (RSS-NEM adduct),"[1]; precursor 1 mM, NEM 20 mM, pH 7.4 phosphate buffer, 37° C., based upon % precursor consumed",96% and 96 ± 1%
